Experiment [1] concerns human non-small cell lung cancer cell line NCI-H460. Description: Cell proliferation inhibition test by sensitivity-enhancing to ionizing radiation (Cell Titer Glo). Type of experiment: cell-based. As to conditions: concentration in which SER became 2, NCI-H460 cells, ionizing radiation 2 Gy, cultured 120 hour. The gist of the method: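 Radiosensitisation measured as SER, a ratio of Cell Titer Glo luminescence in irradiated vs unirradiated plates relative to DMSO; SER2, the concentration yielding SER 2, came from sigmoidal regression. Compound (0.1% DMSO) was given 24 h post-seeding, 2 Gy applied 30 min later, then 120 hour culture at 37° C.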
Background: ATP-based viability assays read luminescence as a measure of living cells.

The target in experiment [2] is T1, ATM (Homo sapiens, UniProt Q13315).
T1 construct: detecting phosphorylation of Chk2 in a human non-small cell lung cancer cell line NCI-H460 (ATCC company); host or cells: NCI-H460 human non-small cell lung cancer cells
T1 sequence (Q13315 whole entry): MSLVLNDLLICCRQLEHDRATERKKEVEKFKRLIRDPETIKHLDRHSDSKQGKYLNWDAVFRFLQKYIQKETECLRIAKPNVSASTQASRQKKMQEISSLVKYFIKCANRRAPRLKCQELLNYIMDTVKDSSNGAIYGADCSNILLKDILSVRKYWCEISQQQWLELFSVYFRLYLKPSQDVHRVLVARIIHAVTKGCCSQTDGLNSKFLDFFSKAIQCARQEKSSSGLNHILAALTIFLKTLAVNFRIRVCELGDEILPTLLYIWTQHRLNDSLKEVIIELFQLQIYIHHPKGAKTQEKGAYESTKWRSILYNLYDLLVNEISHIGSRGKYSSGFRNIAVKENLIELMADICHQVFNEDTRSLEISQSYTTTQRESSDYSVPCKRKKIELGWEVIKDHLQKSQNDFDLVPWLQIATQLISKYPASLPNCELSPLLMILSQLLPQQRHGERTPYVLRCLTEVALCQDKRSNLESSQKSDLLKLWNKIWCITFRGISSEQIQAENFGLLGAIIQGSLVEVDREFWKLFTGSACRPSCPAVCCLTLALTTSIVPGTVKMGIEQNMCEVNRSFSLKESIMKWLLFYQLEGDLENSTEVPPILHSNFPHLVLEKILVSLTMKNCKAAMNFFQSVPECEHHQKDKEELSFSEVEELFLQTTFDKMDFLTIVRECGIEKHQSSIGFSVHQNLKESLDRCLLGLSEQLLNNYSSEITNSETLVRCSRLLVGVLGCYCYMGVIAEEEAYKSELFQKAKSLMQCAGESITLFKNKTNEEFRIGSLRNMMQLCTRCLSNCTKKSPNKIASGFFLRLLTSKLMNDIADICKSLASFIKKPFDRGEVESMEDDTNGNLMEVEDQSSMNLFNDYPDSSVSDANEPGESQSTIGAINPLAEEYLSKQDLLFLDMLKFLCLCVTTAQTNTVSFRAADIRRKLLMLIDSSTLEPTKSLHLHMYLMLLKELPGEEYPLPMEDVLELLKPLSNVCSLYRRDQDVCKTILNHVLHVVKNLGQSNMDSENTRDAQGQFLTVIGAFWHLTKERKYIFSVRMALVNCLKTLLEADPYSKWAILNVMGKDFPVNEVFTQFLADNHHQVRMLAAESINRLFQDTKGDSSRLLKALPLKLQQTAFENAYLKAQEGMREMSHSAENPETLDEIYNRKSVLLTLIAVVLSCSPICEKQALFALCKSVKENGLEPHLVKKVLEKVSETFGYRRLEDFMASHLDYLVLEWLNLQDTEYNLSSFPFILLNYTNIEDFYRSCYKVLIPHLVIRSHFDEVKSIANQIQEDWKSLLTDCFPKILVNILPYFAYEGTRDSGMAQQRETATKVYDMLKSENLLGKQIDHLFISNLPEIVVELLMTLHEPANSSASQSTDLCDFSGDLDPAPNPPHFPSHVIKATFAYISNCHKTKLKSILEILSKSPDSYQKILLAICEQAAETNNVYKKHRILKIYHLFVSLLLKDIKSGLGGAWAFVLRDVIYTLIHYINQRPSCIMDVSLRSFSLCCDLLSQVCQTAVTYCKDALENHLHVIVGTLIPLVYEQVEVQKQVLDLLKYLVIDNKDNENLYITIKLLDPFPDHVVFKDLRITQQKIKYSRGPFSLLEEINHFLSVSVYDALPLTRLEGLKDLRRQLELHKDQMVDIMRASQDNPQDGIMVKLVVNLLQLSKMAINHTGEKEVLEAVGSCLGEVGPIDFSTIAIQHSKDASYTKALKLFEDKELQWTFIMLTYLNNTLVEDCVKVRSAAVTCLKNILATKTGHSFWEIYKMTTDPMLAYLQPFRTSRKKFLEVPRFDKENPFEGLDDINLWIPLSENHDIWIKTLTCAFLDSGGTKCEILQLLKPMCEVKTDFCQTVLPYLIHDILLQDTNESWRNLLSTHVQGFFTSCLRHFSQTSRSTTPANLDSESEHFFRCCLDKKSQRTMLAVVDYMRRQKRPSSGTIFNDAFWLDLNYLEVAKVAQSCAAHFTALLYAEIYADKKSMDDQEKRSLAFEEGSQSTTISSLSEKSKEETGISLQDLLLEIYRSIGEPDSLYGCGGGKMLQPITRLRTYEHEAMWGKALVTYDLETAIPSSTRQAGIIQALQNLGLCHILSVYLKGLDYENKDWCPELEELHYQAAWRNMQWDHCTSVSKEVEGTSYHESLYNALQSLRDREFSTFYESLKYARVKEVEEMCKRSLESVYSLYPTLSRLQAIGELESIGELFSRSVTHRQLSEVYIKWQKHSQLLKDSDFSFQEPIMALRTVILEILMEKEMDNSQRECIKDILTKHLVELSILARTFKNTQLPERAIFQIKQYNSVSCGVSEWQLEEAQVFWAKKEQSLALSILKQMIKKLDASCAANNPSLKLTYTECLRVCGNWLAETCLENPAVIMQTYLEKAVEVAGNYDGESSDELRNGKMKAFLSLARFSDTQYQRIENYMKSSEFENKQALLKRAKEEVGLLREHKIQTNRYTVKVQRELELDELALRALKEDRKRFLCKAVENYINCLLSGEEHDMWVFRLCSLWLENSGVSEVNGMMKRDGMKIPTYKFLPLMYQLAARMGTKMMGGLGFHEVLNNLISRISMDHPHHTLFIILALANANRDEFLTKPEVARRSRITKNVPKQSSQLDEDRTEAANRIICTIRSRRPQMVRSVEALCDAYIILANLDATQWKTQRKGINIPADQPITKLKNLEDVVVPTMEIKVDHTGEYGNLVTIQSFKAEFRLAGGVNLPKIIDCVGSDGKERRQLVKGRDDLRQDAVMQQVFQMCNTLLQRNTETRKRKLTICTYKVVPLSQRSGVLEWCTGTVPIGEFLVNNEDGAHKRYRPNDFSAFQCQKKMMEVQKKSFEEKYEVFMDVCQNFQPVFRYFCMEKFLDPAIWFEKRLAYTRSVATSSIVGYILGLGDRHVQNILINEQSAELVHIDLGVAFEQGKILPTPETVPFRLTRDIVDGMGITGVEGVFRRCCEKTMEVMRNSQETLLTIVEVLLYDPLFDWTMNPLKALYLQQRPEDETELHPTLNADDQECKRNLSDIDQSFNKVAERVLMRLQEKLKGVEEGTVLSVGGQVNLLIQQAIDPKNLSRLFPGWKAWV
Description: ATM inhibition test (phosphorylation of Chk2 generated by ionizing radiation, AlphaScreen SureFire). Type of experiment: cell-based. As to conditions: phosphorylated Chk2 in NCI-H460 cells, ionizing radiation 8Gy, 1 hour after test compound treatment; read-out: ATM inhibitory activity. A digest of the protocol: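 NCI-H460 cells treated with compound for 1 hour, then irradiated with 8Gy and incubated 1 hour at 37° C. Phospho-Chk2 measured by AlphaScreen SureFire. Inhibition ratio calculated relative to untreated irradiated and non-irradiated wells.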
For orientation: Bead proximity is the source of the signal in Alpha formats.

Where only a bound is given, the exact number is not on record here.

Take `COC[C@H](CN1CCO[C@@H](C)C1)Nc1ccc2c(c1)Sc1cccc(-c3cc(N4CCOCC4)cc(=O)[nH]3)c1S2` [Example 1-46-6, 6-(7-(((S)-1-Methoxy-3-((S)-2-methylmorpholino)propan-2-yl)amino)thianthren-1-yl)-4-morpholino pyridin-2(1H)-one]: the SER2 (concentration at which the radiation sensitivity-enhancement ratio reaches 2) in experiment [1] (Homo sapiens, NCI-H460, 120 h) was < 100 nM. For the same molecule, the IC50 in experiment [2] was < 100 nM.

Take `O=c1cc(N2CCOCC2)cc(-c2cccc3c2Oc2ccc(NCc4cncc(N5CCCC5)c4)cc2S3)[nH]1` [Example 4-4-7, 4-Mmorpholino-6-(8-(((5-(pyrrolidin-1-yl)pyridin-3-yl)methyl)amino)phenoxathiin-4-yl)pyridin-2(1H)-one]: the SER2 (concentration at which the radiation sensitivity-enhancement ratio reaches 2) in experiment [1] (Homo sapiens, NCI-H460, 120 h) fell in the range of 100 to 500 nM. The IC50 in experiment [2] is < 100 nM.

With `N#Cc1cncc(CNc2ccc3c(c2)Cc2cccc(-c4cc(N5CCOCC5)cc(=O)[nH]4)c2O3)c1` [Example 2-14-7, 5-(((5-(4-Morpholino-6-oxo-1,6-dihydropyridin-2-yl)-9H-xanthen-2-yl)amino)methyl)nicotinonitrile], the SER2 (concentration at which the radiation sensitivity-enhancement ratio reaches 2) in experiment [1] (Homo sapiens, NCI-H460, 120 h) lay in the range of 500 to 2000 nM. In addition, the IC50 in experiment [2] is < 100 nM.

As for `N#Cc1cccc(CNc2ccc3c(c2)Sc2cccc(-c4cc(N5CCOCC5)cc(=O)[nH]4)c2O3)n1` [Example 4-4-25, 6-(((6-(4-Morpholino-6-oxo-1,6-dihydropyridin-2-yl)phenoxathiin-2-yl)amino)methyl)picolinonitrile], the SER2 (concentration at which the radiation sensitivity-enhancement ratio reaches 2) in experiment [1] (Homo sapiens, NCI-H460, 120 h) was 500 to 2000 nM. Further, in experiment [2], the IC50 was < 100 nM.

`COc1ncc(CNc2ccc3c(c2)Cc2cccc(-c4cc(N5CCOCC5)cc(=O)[nH]4)c2O3)cc1F` [Example 2-2-18, 6-(7-(((5-Fluoro-6-methoxypyridin-3-yl)methyl)amino)-9H-xanthen-4-yl)-4-morpholino pyridin-2(1H)-one]: the SER2 (concentration at which the radiation sensitivity-enhancement ratio reaches 2) in experiment [1] (Homo sapiens, NCI-H460, 120 h) lay within 500 to 2000 nM. Also, the IC50 in experiment [2] fell in the range of 100 to 500 nM.

Regarding `Cc1cccc(C(CO)Nc2ccc3c(c2)Sc2cccc(-c4cc(N5CCOCC5)cc(=O)[nH]4)c2S3)n1` (stereo not drawn) [Example 1-12-71, 6-(7-((2-Hydroxy-1-(6-methylpyridin-2-yl)ethyl)amino)thianthren-1-yl)-4-morpholino pyridin-2(1H)-one], the SER2 (concentration at which the radiation sensitivity-enhancement ratio reaches 2) in experiment [1] (Homo sapiens, NCI-H460, 120 h) lay within 100 to 500 nM. Also, the IC50 in experiment [2] was < 100 nM.

As for `Cc1cccc(C(C)Nc2ccc3c(c2)Sc2cccc(-c4cc(N5CCOCC5)cc(=O)[nH]4)c2O3)n1` (stereo not drawn) [Example 4-4-30, 6-(8-((1-(6-Methylpyridin-2-yl)ethyl)amino)phenoxathiin-4-yl)-4-morpholino pyridin-2(1H)-one], the SER2 (concentration at which the radiation sensitivity-enhancement ratio reaches 2) in experiment [1] (Homo sapiens, NCI-H460, 120 h) is 100 to 500 nM. Moreover, the IC50 in experiment [2] was < 100 nM.

`CC(CN1CCN(C)CC1)Nc1ccc2c(c1)Sc1cccc(-c3cc(N4CCOCC4)cc(=O)[nH]3)c1S2` (single isomer, unassigned) [Example 1-13-3-2, 6-(7-((1-(4-methylpiperazin-1-yl)propan-2-yl)amino)thianthren-1-yl)-4-morpholinopyridin-2(1H)-one]: in experiment [1] (Homo sapiens, NCI-H460, 120 h), the SER2 (concentration at which the radiation sensitivity-enhancement ratio reaches 2) lay in the range of 100 to 500 nM. In experiment [2], the IC50 was < 100 nM.

As to `O=c1cc(N2CCOCC2)cc(-c2c(F)ccc3c2Oc2ccc(NCc4cncc(Cl)c4)cc2C3)[nH]1` [Example 2-46-2, 6-(7-(((5-Chloropyridin-3-yl)methyl)amino)-3-fluoro-9H-xanthen-4-yl)-4-morpholinopyridin-2(1H)-one], the SER2 (concentration at which the radiation sensitivity-enhancement ratio reaches 2) in experiment [1] (Homo sapiens, NCI-H460, 120 h) was in the range of 100 to 500 nM. In experiment [2], the IC50 was < 100 nM.

`N#Cc1ccnc(CNc2ccc3c(c2)Sc2cccc(-c4cc(N5CCOCC5)cc(=O)[nH]4)c2O3)c1` [Example 4-4-28, 2-(((6-(4-Morpholino-6-oxo-1,6-dihydropyridin-2-yl)phenoxathiin-2-yl)amino)methyl) isonicotinonitrile]: the SER2 (concentration at which the radiation sensitivity-enhancement ratio reaches 2) in experiment [1] (Homo sapiens, NCI-H460, 120 h) is 100 to 500 nM. Moreover, the IC50 in experiment [2] was < 100 nM.

In the case of `COc1ncc(CNc2ccc3c(c2)Cc2cccc(-c4cc(N5CCOCC5)cc(=O)[nH]4)c2O3)cn1` [Example 2-2-14, 6-(7-(((2-Methoxypyrimidin-5-yl)methyl)amino)-9H-xanthen-4-yl)-4-morpholino pyridin-2(1H)-one], in experiment [1] (Homo sapiens, NCI-H460, 120 h), the SER2 (concentration at which the radiation sensitivity-enhancement ratio reaches 2) lay in the range of 100 to 500 nM. Besides, the IC50 in experiment [2] is < 100 nM.

Turning to `Cc1ccc(C(C)Nc2ccc3c(c2)Sc2cccc(-c4cc(N5CCOCC5)cc(=O)[nH]4)c2S3)nc1` (stereo not drawn) [Example 1-12-113, 6-(7-((1-(5-Methylpyridin-2-yl)ethyl)amino)thianthren-1-yl)-4-morpholino pyridin-2(1H)-one], in experiment [1] (Homo sapiens, NCI-H460, 120 h), the SER2 (concentration at which the radiation sensitivity-enhancement ratio reaches 2) fell in the range of 100 to 500 nM. Besides, in experiment [2], the IC50 is < 100 nM.

For `Cc1ccc(C(C)(C)Nc2ccc3c(c2)Sc2cccc(-c4cc(N5CCOCC5)cc(=O)[nH]4)c2S3)nc1` [Example 1-50-2, 6-(7-((2-(5-Methylpyridin-2-yl)propan-2-yl)amino)thianthren-1-yl)-4-morpholino pyridin-2(1H)-one], the SER2 (concentration at which the radiation sensitivity-enhancement ratio reaches 2) in experiment [1] (Homo sapiens, NCI-H460, 120 h) was in the range of 100 to 500 nM. For the same molecule, in experiment [2], the IC50 was < 100 nM.

As to `N#Cc1cccc(CNc2ccc3c(c2)Cc2cccc(-c4cc(N5CCOCC5)cc(=O)[nH]4)c2O3)n1` [Example 2-14-13, 6-(((5-(4-Morpholino-6-oxo-1,6-dihydropyridin-2-yl)-9H-xanthen-2-yl)amino)methyl) picolinonitrile], the SER2 (concentration at which the radiation sensitivity-enhancement ratio reaches 2) in experiment [1] (Homo sapiens, NCI-H460, 120 h) lay in the range of 100 to 500 nM. Further, in experiment [2], the IC50 was < 100 nM.

On to `COc1ccnc(CNc2ccc3c(c2)Cc2cccc(-c4cc(N5CCOCC5)cc(=O)[nH]4)c2O3)c1` [Example 2-2-38, 6-(7-(((4-Methoxypyridin-2-yl)methyl)amino)-9H-xanthen-4-yl)-4-morpholino pyridin-2(1H)-one], for which the SER2 (concentration at which the radiation sensitivity-enhancement ratio reaches 2) in experiment [1] (Homo sapiens, NCI-H460, 120 h) was 100 to 500 nM. Moreover, the IC50 in experiment [2] is < 100 nM.

On to `Cc1cnc(C(C)Nc2ccc3c(c2)Sc2cccc(-c4cc(N5CCOCC5)cc(=O)[nH]4)c2S3)nc1` (single isomer, unassigned) [Example 1-12-139-2, 6-(7-((1-(5-methylpyrimidin-2-yl)ethyl)amino)thianthren-1-yl)-4-morpholinopyridin-2(1H)-one], for which, in experiment [1], the SER2 (concentration at which the radiation sensitivity-enhancement ratio reaches 2) lay within 100 to 500 nM. Moreover, the IC50 in experiment [2] is < 100 nM.

In the case of `CC(Nc1ccc2c(c1)Cc1cccc(-c3cc(N4CCOCC4)cc(=O)[nH]3)c1O2)c1cc(Cl)ccn1` (stereo not drawn) [Example 2-14-23, 6-(7-((1-(4-Chloropyridin-2-yl)ethyl)amino)-9H-xanthen-4-yl)-4-morpholino pyridin-2(1H)-one], in experiment [1] (Homo sapiens, NCI-H460, 120 h), the SER2 (concentration at which the radiation sensitivity-enhancement ratio reaches 2) lay in the range of 100 to 500 nM. Further, the IC50 in experiment [2] was < 100 nM.

As to `Cc1ccnc(C(CO)Nc2ccc3c(c2)Sc2cccc(-c4cc(N5CCOCC5)cc(=O)[nH]4)c2S3)c1` (single isomer, unassigned) [Example 1-12-138-2, 6-(7-((2-hydroxy-1-(4-methylpyridin-2-yl)ethyl)amino)thianthren-1-yl)-4-morpholinopyridin-2(1H)-one], the SER2 (concentration at which the radiation sensitivity-enhancement ratio reaches 2) in experiment [1] (Homo sapiens, NCI-H460, 120 h) is < 100 nM. Also, the IC50 in experiment [2] is < 100 nM.

On to `CC(CN1CCN(c2ccccn2)CC1)Nc1ccc2c(c1)Sc1cccc(-c3cc(N4CCOCC4)cc(=O)[nH]3)c1S2` (stereo not drawn) [Example 1-13-17, 4-Morpholino-6-(7-((1-(4-(pyridin-2-yl)piperazin-1-yl)propan-2-yl)amino)thianthren-1-yl)pyridin-2 (1H)-one], for which the SER2 (concentration at which the radiation sensitivity-enhancement ratio reaches 2) in experiment [1] (Homo sapiens, NCI-H460, 120 h) was in the range of 100 to 500 nM. Besides, in experiment [2], the IC50 was < 100 nM.

Take `Cc1ccnc(C(C)Nc2ccc3c(c2)Sc2cccc(-c4cc(N5CCOCC5)cc(=O)[nH]4)c2S3)c1` (single isomer, unassigned) [Example 1-12-135-1, 6-(7-((1-(4-methylpyridin-2-yl)ethyl)amino)thianthren-1-yl)-4-morpholinopyridin-2(1H)-one]: in experiment [1] (Homo sapiens, NCI-H460, 120 h), the SER2 (concentration at which the radiation sensitivity-enhancement ratio reaches 2) was < 100 nM. The IC50 in experiment [2] is < 100 nM.

Turning to `Cc1ccnc(CNc2ccc3c(c2)Sc2cccc(-c4cc(N5CCOCC5)cc(=O)[nH]4)c2O3)c1` [Example 4-8-19, 6-(8-(((4-Methylpyridin-2-yl)methyl)amino)phenoxathiin-4-yl)-4-morpholino pyridin-2(1H)-one], in experiment [1] (Homo sapiens, NCI-H460, 120 h), the SER2 (concentration at which the radiation sensitivity-enhancement ratio reaches 2) was 100 to 500 nM. The IC50 in experiment [2] was < 100 nM.

`Cc1cccc(C(CCN(C)C)Nc2ccc3c(c2)Sc2cccc(-c4cc(N5CCOCC5)cc(=O)[nH]4)c2S3)n1` (stereo not drawn) [Example 1-22-1, 6-(7-((3-(dimethylamino)-1-(6-methylpyridin-2-yl)propyl)amino)thianthren-1-yl)-4-morpholinopyridin-2(1H)-one]: the SER2 (concentration at which the radiation sensitivity-enhancement ratio reaches 2) in experiment [1] (Homo sapiens, NCI-H460, 120 h) is 100 to 500 nM. In addition, the IC50 in experiment [2] is < 100 nM.

For the molecule `O=c1cc(N2CCOCC2)cc(-c2cccc3c2Oc2ccc(NCc4ccc(F)nc4)cc2S3)[nH]1` [Example 4-8-24, 6-(8-(((6-Fluoropyridin-3-yl)methyl)amino)phenoxathiin-4-yl)-4-morpholino pyridin-2(1H)-one], the SER2 (concentration at which the radiation sensitivity-enhancement ratio reaches 2) in experiment [1] (Homo sapiens, NCI-H460, 120 h) lay in the range of 100 to 500 nM. Further, the IC50 in experiment [2] was < 100 nM.

As to `Cc1ccc(C(Nc2ccc3c(c2)Sc2cccc(-c4cc(N5CCOCC5)cc(=O)[nH]4)c2S3)C(C)C)nc1` (stereo not drawn) [Example 1-12-121, 6-(7-((2-Methyl-1-(5-methylpyridin-2-yl)propyl)amino)thianthren-1-yl)-4-morpholino pyridin-2(1H)-one], the SER2 (concentration at which the radiation sensitivity-enhancement ratio reaches 2) in experiment [1] (Homo sapiens, NCI-H460, 120 h) was 100 to 500 nM. Further, in experiment [2], the IC50 is < 100 nM.

The record behind these values is patent US9586951B2 (FUJIFILM Corporation, priority 2013, dated 2017).
